Test results published in patent US20250002476A1, “AZOLE COMPOUNDS FOR CONTROLLING INVERTEBRATE PESTS” (FMC Corporation, priority 2021, published 2025).

Legend:
Format in all cases: in vivo
[1] = test system: Potato Leafhopper (Empoasca fabae (Harris)); experiment: Test C: control of Potato Leafhopper on sprayed bean plant; settings: 144 h, adults, 6 days; for mortality at 250 ppm: sprayed at 250 ppm
Protocol: (§1) Test compounds were formulated using a solution containing 10% acetone, 90% water and 300 ppm Activator 90@ non-ionic surfactant (Loveland Products, Loveland, Colorado, USA). The formulated compounds were applied in 1 mL of liquid through an atomized nozzle positioned 1.27 cm (0.5 inches) above the top of each test unit. Test compounds were sprayed at the rates indicated, and each test was replicated three times.
For evaluating control of Potato Leafhopper (Empoasca fabae (Harris)) through contact and/or systemic means, the test unit consisted of a small open container with a 5-6-day-old bean plant inside. White sand was added to the top of the soil, and one of the primary leaves was excised prior to application of the test compound.
Test compounds were formulated and sprayed at 250 and 50 ppm. After spraying of the formulated test compound, the test units were allowed to dry for 1 hour before they were post-infested with 5 potato leafhoppers (18-to-21-day-old adults). A black, screened cap was placed on the top of the test unit, and the test units were held for 6 days in a growth chamber at 20° C. and 70% relative humidity. Each test unit was then visually assessed for insect mortality.

[2] = test system: Green Peach Aphid (Myzus persicae (Sulzer)); experiment: Test D: control of Green Peach Aphid on sprayed radish plant; settings: 144 h, pre-infested, 6 days; for mortality at 250 ppm: sprayed at 250 ppm; for mortality at 50 ppm: sprayed at 50 ppm
Protocol: as §1
For evaluating control of Green Peach Aphid (Myzus persicae (Sulzer)) through contact and/or systemic means, the test unit consisted of a small open container with a 12-15-day-old radish plant inside. Prior to compound application, each test unit was pre-infested by placing on a leaf of the test plant 30-40 aphids on a piece of leaf excised from a culture plant (cut-leaf method). The aphids moved onto the test plant as the leaf piece desiccated. After pre-infestation, the soil of the test unit was covered with a layer of sand.
Test compounds were formulated and sprayed at 250 and 50 ppm. After spraying of the formulated test compound, each test unit was allowed to dry for 1 hour and then a black, screened cap was placed on top. The test units were held for 6 days in a growth chamber at 19-21° C. and 50-70% relative humidity. Each test unit was then visually assessed for insect mortality.

[3] = test system: Corn Planthopper (Peregrinus maidis (Ashmead)); experiment: Test B: control of Corn Planthopper on sprayed corn plant; settings: 144 h, nymphs, 6 days; for mortality at 50 ppm: sprayed at 50 ppm; for mortality at 250 ppm: sprayed at 250 ppm; for mortality at 10 ppm: sprayed at 10 ppm
Protocol: as §1
For evaluating control of Corn Planthopper (Peregrinus maidis (Ashmead)) through contact and/or systemic means, the test unit consisted of a small open container with a 3-4-day-old corn (maize) plant inside. White sand was added to the top of the soil prior to application of the test compound.
Test compounds were formulated and sprayed at 250, 50 and 10 ppm. After spraying of the formulated test compound, the test units were allowed to dry for 1 h before they were post-infested with ˜15-20 nymphs (18-to-21-day-old). A black, screened cap was placed on the top of each test unit, and the test units were held for 6 days in a growth chamber at 22-24° C. and 50-70% relative humidity. Each test unit was then visually assessed for insect mortality.

[4] = test system: cotton melon aphid (Aphis gossypii (Glover)); experiment: Test E: control of cotton melon aphid on sprayed okra plant; settings: 144 h, pre-infested, 6 days; for mortality at 50 ppm: sprayed at 50 ppm; for mortality at 250 ppm: sprayed at 250 ppm; for mortality at 2 ppm: sprayed at 2 ppm
Protocol: as §1
For evaluating control of cotton melon aphid (Aphis gossypii (Glover)) through contact and/or systemic means, the test unit consisted of a small open container with a 5-day-old okra plant inside. This was pre-infested with 30-40 insects on a piece of leaf according to the cut-leaf method, and the soil of the test unit was covered with a layer of sand.
Test compounds were formulated and sprayed at 250, 50, 10 and 2 ppm. After spraying, the test units were maintained in a growth chamber for 6 days at 19° C. and 70% relative humidity. Each test unit was then visually assessed for insect mortality.

[5] = test system: silverleaf whitefly (Bemisia argentifolii (Bellows and Perring)); experiment: Test F: control of silverleaf whitefly on sprayed soybean plant; settings: 288 h, pre-infested (oviposition), 12 days; for mortality at 250 ppm: sprayed at 250 ppm; for mortality at 50 ppm: sprayed at 50 ppm
Protocol: as §1
For evaluating control of silverleaf whitefly (Bemisia argentifolii (Bellows and Perring)) through contact and/or systemic means, each test unit consisted of a small open container with a 5-7 day old soybean plant inside. This was pre-infested by placing test units into cages containing adult whiteflies so that oviposition on the leaves could occur. The adults were removed from the plants with an air-blast nozzle, and the test units were capped. The test units were then stored 2 to 3 days before spraying.
Test compounds were formulated and sprayed at 250 and 50 ppm. After spraying, the test units were maintained in a growth chamber for 12 days at 23° C. and 70% relative humidity. Each test unit was then visually assessed for insect mortality.

[6] = test system: Neotropical Brown Stink Bug (Euschistus heros (Fab)); experiment: Test H: control of Neotropical Brown Stink Bug on sprayed green bean pieces; settings: sprayed at 250 ppm; 3rd instar nymphs; 5 days
Protocol: as §1
For evaluating control of Neotropical Brown Stink Bug (Euschistus heros (Fab)) through contact and/or systemic means, the test unit consisted of a petri dish with two, ˜2 cm pieces of green bean inside.
Test compounds were formulated and sprayed at 250, 50 and 10 ppm. After spraying of the formulated test compound, the test units were allowed to dry for 1 h before they were post-infested with 10 3rd instar nymphs. A fine mesh screen was secured to the petri dish, the test units were held for 5 days in a growth chamber at 28° C. and 65% relative humidity. Each test unit was then visually assessed for insect mortality after five days.

Compound | mortality at 250 ppm [2] [%] | mortality at 50 ppm [3] [%] | mortality at 50 ppm [4] [%] | mortality at 250 ppm [3] [%] | mortality at 250 ppm [5] [%] | also measured
CCC#CCn1ncc(-c2cncc(F)c2)n1 [Compound 155] | ≥ 80 | ≥ 80 | ≥ 80 |  |  | mortality at 250 ppm [1]: ≥ 80%
CC(C)C#CCn1ncc(-c2ccc(C(F)(F)F)cc2)n1 [Compound 139] |  |  |  | ≥ 80 |  | mortality at 250 ppm [1]: ≥ 80%; mortality at 250 ppm [4]: ≥ 80%
CCC#CCn1ncc(-c2ccc(Cl)nc2)n1 [Compound 157] | ≥ 80 | ≥ 80 | ≥ 80 |  | ≥ 50 | 
CCC#CCn1ncc(-c2ccc(C(F)(F)F)cc2)n1 [Compound 103, 2-(2-Pentyn-1-yl)-4-[4-(trifluoromethyl)phenyl]-2H-1,2,3-triazole] | ≥ 80 | ≥ 80 | ≥ 80 |  | ≥ 50 | mortality at 250 ppm [1]: ≥ 80%
CCC#CCn1nnc(-c2ccc(F)cc2)n1 [Compound 41, 5-(4-fluorophenyl)-2-(2-pentyn-1-yl)-2H-tetrazole] | ≥ 80 |  | ≥ 80 |  | ≥ 50 | mortality at 10 ppm [3]: ≥ 80%
CCC#CCn1nnc(-c2ccc(Br)c(Cl)c2)n1 [Compound 164, 5-(4-Bromo-3-chlorophenyl)-2-(2-pentyn-1-yl)-2H-tetrazole] | ≥ 80 |  | ≥ 80 | ≥ 80 |  | mortality at 50 ppm [5]: ≥ 50%
CCC#CCn1nnc(-n2cc(Cl)cn2)n1 [Compound 306] | ≥ 80 |  | ≥ 80 | ≥ 80 | ≥ 50 | 
CCC#CCn1ncc(-c2ccc(Cl)cn2)n1 [Compound 141] | ≥ 80 |  |  |  |  | mortality at 250 ppm [4]: ≥ 80%; mortality at 50 ppm [5]: ≥ 50%
CCC#CCn1nnc(-c2ccc3occc3c2)n1 [Compound 193, 5-(5-Benzofuranyl)-2-(2-pentyn-1-yl)-2H-tetrazole] | ≥ 80 | ≥ 80 | ≥ 80 |  | ≥ 50 | 
CCC#CCn1nnc(-c2cc(F)c(F)c(F)c2)n1 [Compound 313, 2-(2-Pentyn-1-yl)-5-(3,4,5-trifluorophenyl)-2H-tetrazole] |  |  |  |  | ≥ 50 | mortality at 50 ppm [2]: ≥ 80%; mortality at 10 ppm [3]: ≥ 80%; mortality at 2 ppm [4]: ≥ 80%
CCC#CCn1cc(-c2ccc(F)nc2)nn1 [Compound 158] |  |  |  |  |  | mortality at 50 ppm ([1]; sprayed at 50 ppm): ≥ 80%; mortality at 250 ppm [4]: ≥ 80%
CCC#CCn1cc(-c2ccc(C)cc2)nn1 [Compound 18] |  |  |  |  |  | mortality [6]: at least 50%
CCC#CCn1nnc(-c2ccc(C(F)(F)F)c(Br)c2)n1 [Compound 325, 5-[3-Bromo-4-(trifluoromethyl)phenyl]-2-(2-pentyn-1-yl)-2H-tetrazole] |  |  | ≥ 80 | ≥ 80 |  | mortality at 50 ppm [2]: ≥ 80%; mortality at 50 ppm [5]: ≥ 50%
CCC#CCn1ncc(-c2ccc(F)nc2)n1 [Compound 159, 2-Fluoro-5-[2-(2-pentyn-1-yl)-2H-1,2,3-triazol-4-yl]pyridine] |  | ≥ 80 | ≥ 80 |  |  | mortality at 250 ppm [1]: ≥ 80%
CCC#CCn1nnc(-c2cc(F)cc(F)c2)n1 [Compound 65, 5-(3,5-difluorophenyl)-2-(2-pentyn-1-yl)-2H-tetrazole] |  | ≥ 80 |  |  | ≥ 50 | mortality at 50 ppm [2]: ≥ 80%; mortality at 2 ppm [4]: ≥ 80%
CCC#CCn1nnc(-c2ccc(Cl)c(F)c2)n1 [Compound 308, 5-(4-Chloro-3-fluorophenyl)-2-(2-pentyn-1-yl)-2H-tetrazole] |  |  |  | ≥ 80 |  | mortality at 50 ppm [2]: ≥ 80%; mortality at 10 ppm ([4]; sprayed at 10 ppm): ≥ 80%; mortality at 50 ppm [5]: ≥ 50%
